Results as given in patent publication US20020159969A1, “Small peptide-based therapeutics for reversing cancer-associated MUC-1 mucin-induced immunosuppression” (priority 1997, published 2002).

Tests used:
T cells = assay: T cell proliferation assay with allo PBLs (3H-thymidine incorporation) with synthetic MUC-1 tandem repeat peptides; format: cell-based, human; conditions: peptide 10 μg/ml, 6-7 days then 5 days, FIG. 2
Protocol: Enriched T cell populations were purified from buffy coats obtained from normal red cross donors using nylon wool columns by previously reported procedures. […] For the allo MLR, mitomycin C treated allogeneic PBLs were co-cultured with purified T cells in the presence or absence of affinity purified MUC-1 mucin or control OSM. In most of the experiments, the T cells were cultured 6-7 days in AIM V medium in the absence or presence of MUC-1, MUC-1 derivative or OSM at the indicated concentration. After this time, the T cells were harvested, washed and cultured as indicated.
For the experiment depicted in FIG. 2, purified T cells (10^6/ml) were cultured in AIM V medium with allo PBLs in the absence or presence of MUC-1, MUC-1 derivative or OSM 10 μg/ml for 6-7 days. T cells were harvested and plated in 96 well flat bottom plates at 10^5/well with allo PBLs (10^5/well), in the presence or absence of affinity purified MUC-1, MUC-1 derivative or OSM. Control cultures were treated with either 50 U/ml IL-2 or 1 μg/ml anti-CD28 Mab. After 4 days of culture, ^3H-thymidine (1 μCi/well) was added. The cells were harvested on the fifth day and ^3H-thymidine incorporation was measured by liquid scintillation.

T-cells = assay: Relief of 100 mer MUC1 peptide-induced suppression/anergy of T-cell proliferation (allo-PBLs, 3H-thymidine incorporation); format: cell-based, human; conditions: 100 mer MUC1 peptide 25 μg/ml; 16 mer at varying doses; FIG. 3
Protocol: In the experiment of FIG. 3, purified T-cells (10^6/ml) were cultured in AIM V medium with allo-PBLs in the presence (100 mer MUC1 peptide group; right panel) or absence (media group; left panel) of 100 mer MUC1 synthetic peptide (25 μg/ml) for 6-7 days. At this time, the T-cells were harvested and plated in 96 well flat bottom plates at 10^5/well with allo-PBLs (10^5/well) in the presence or absence of 100 mer MUC1 peptide (25 μg/ml), and the 16 mer MUC1 peptide (less than one tandem repeat) at varying doses. The wells were pulsed with ^3H-thymidine (1 μCi/well) on the fourth day of culture followed by harvesting on the fifth day. ^3H-Thymidine incorporation into the DNA of proliferating T-cells was measured by liquid scintillation counter. Data are shown as mean CPM±standard deviations. Each group was set up in replicates of 3 wells.

human T-cell cultures = assay: Mixed lymphocyte reaction / T-cell proliferation (3H-thymidine incorporation) with affinity purified MUC-1 mucin; format: cell-based; conditions: purified MUC-1 mucin added to human T-cell cultures; FIG. 1
Protocol: The mixed lymphocyte reaction is conducted by mixing the lymphocytes of HLA disparate individuals in in vitro tissue cultures. The “responder population” in this experiment is purified T-cells from one population, while the “stimulator” population in this experiment is the peripheral blood lymphocytes obtained from an HLA mismatched individual donor. The two cell populations were mixed and cultured either in the presence or absence of various doses of B27.29 affinity purified MUC-1 mucin that was purified from a pleural effusion fluid. The results of this experiment are depicted in FIG. 1.
In the experiment depicted in FIG. 1, 10^6 T-cells were cultured in AIM V medium in presence of 10^6 allo-PBLs (mitomycin C treated) with or without the indicated concentration of affinity purified MUC1 or OSM for 6-7 days. At this time the T-cells were harvested and plated at 10^5/well in 96 well flat bottom plates and the polyclonal stimuli allo-PBLs (10^5/well), or anti-CD3 (1 μg/ml) or PHA (0.2 μg/ml), in presence or absence of MUC1 or OSM for 4 days. Each group was set up in a replicate of five wells. ^3H-thymidine (1 μCi/well) was added and the culture plates were further incubated for 18-24 h before harvesting. ^3H-thymidine incorporation into the DNA of proliferating T-cells was measured by liquid scintillation counting. […]

| Substance | level of T cell proliferation relative to control (T cells) | reversal of suppression/anergy induced by a MUC-1 100-mer peptide (T-cells) | T-cell proliferation against allo-antigenic (or mitogenic) stimulus in vitro (human T-cell cultures) |
| --- | --- | --- | --- |
| GVTSAPDTRPAPGSTA [BP16] | not observed | reverses |  |
| purified human MUC-1 mucin: B27.29 affinity purified MUC-1 mucin glycoprotein from cancer patient pleural effusion/ascites fluid |  |  | strongly inhibits |
